Laboratory results taken from US6436421B1, “Pesticide compositions” (priority 1997, dated 2002).
Like-named read-outs stand apart in the source and are kept apart here.

How the values were obtained:
[1] = assay type: physicochemical
Procedure: One method to evaluate the efficacy of a pesticide adjuvant is to measure its affect on the ability of the pesticide composition to resist wash-off from a surface. One skilled in the art will recognize that a pesticide which remains on the surface of a plant will be expected to have increased efficacy.
A suspension of the pesticide formulation was prepared by adding a premix of water and surfactant, with and without the polymer additives, followed by vigorous shaking of the mixtures by hand. Pieces of Parafilm™M laboratory film, a very soft, flexible, and hydrophobic film, were taped to plastic petrie dishes. The suspensions were sprayed with an automated sprayer as the petrie dishes with attached film were moved at a standard rate below the sprayer. The spray residues were allowed to dry, and a second application of spray was applied. One set of films was exposed, at an inclination of 45 degrees, to approximately 25 mm of water applied by a spray bar (equipped with TX-4 cone-type spray nozzles) that moved back and forth over the samples for a period of about 1 hour. The exposed films were allowed to dry. Another set of films was not exposed to water.
Infra-red spectra of the films were obtained by an Attenuated Total Reflection (ATR) technique. The films were pressed against a Zinc Selenide crystal that had been cleaned previously with methanol. Spectra were recorded with a Spectratech Allied Systems Fourier Transform Infra-Red Spectrometer, and stored in a computer. Peaks associated with pesticide residue were identified by inspection and peak areas were calculated by computer (Pesticide Peak Area, “PA”). A corresponding area for a Parafilm™ peak as similar as possible in peak location and size (in the same spectrum) was calculated (Film Peak Area, “FA”). […] A measure of the pesticide on the surface “P” was derived from the following calculation:
A relative measure of the amount of pesticide remaining after the above exposure to water was then derived from the following calculation: [formula]
Although the intensity of spectral peaks recorded with the ATR technique are very dependent on details of contact with the film, by obtaining a ratio of the pesticide peak to the film peak in the same spectral recording, different spectra can be compared with details of contact being compensated for, since they will have similar effects on the intensity of the pesticide absorption and the film absorption. The intensity of the pesticide peak relative to the film peak will depend on the degree of coverage of the film by the pesticide. To maximize coverage, the spraying was conducted twice. Furthermore, a wetting agent (surfactant) was included in the premix to promote wetting of the film by the spray droplets. Since exposure to water can result in re-distribution of the pesticide as well as wash-off of the pesticide, the measure of the amount remaining is only relative.
In all cases, a measured amount of pesticide was mixed with 270 grams of deionized water and 30 grams of 0.5% Silwet L-77 surfactant. This premix was divided into 50 gram portions. One portion was sprayed without adding polymer. For mixes containing polymer, 66.6 milligrams powder polymer or 1.32 g of a 5% solids dilution of the emulsion polymer were added to the 50 grams of premix.
TX-2 nozzle 12 inches above laboratory film.
58 psi (delivers 150 cc/minute).
Laboratory film moves at 1 mile/hour.
Fan nozzle 14 inches above laboratory film.
29 psi (Spray 15 cc with two passes over laboratory film at a rate to give 25 gallons/acre).

[2] = tested on: Cercospora arachidicola (Early Leaf Spot); assay: Peanut field test of disease control with mancozeb fungicide; assay type: in vivo
Procedure: (§1) For grapes, single plant plots with three replicates/treatment were treated at seven day intervals, with a total of seven applications. Treatments were water-based spray mixtures of mancozeb with or without polymer additives added to the water shortly before spraying. The mixtures were applied with a backpack sprayer using carbon dioxide pressure atomization (45 psi) with a boom having three D3 (Cone) nozzles, at a rate of 640 liters/hectare. The treatments included a control with no fungicide applied, a full rate of mancozeb without additive (2.8 kg active ingredient/hectare), and a half rate of mancozeb (1.4 kg active ingredient/hectare) with or without additives. The polymer additives were used at ⅓ kg. of additive solids/kg. of active ingredient. The mancozeb formulation was a wettable powder with 75% active ingredient.
(§2) Assessments of percent infection (of grape downy mildew caused by Plasmopara viticola) of foliage were made 7 days after treatment # 7 (7DAT#7). These assessments are tabulated below. Data were analyzed by Duncan's multiple range test, using P=0.05.
Peanuts were evaluated the same as grapes except that the plots were 1 meter×5 meter (1 row), with 4 replicates per treatment, there were 9 applications, the boom had five D2 (C45) nozzles, the full rate of mancozeb was 1.6 kg active ingredient/hectare, the final assessment was 23 days after treatment #9 (23DAT#9), and the predominant disease at this time was Cercospora arachidicola (Early Leaf Spot).
(§3) Three different solid redispersible powders were evaluated; Powders I and II from the previous example and powder V, an all acrylic copolymer (Drycryl™DP-2904 redispersible powder, a cement modifier of the Rohm and Haas Company). Three different emulsion polymers were evaluated for comparison; Emulsion IV from the previous example; Emulsion VI, a poly(vinylacetate) emulsion (Rovace™ 117 emulsion from the Rohm and Haas Company, used as a general purpose adhesive component); and Emulsion VII, an acrylic emulsion polymer (Rhoplex™ 2438 emulsion from the Rohm and Haas Company, a component of elastomeric wall coatings).
(§4) In several of the evaluations, a surfactant was added to the spray mixture. When used, the surfactant was a solid powder of 90% dioctyl sodium sulfosuccinate and 10% sodium benzoate (Aerosol® OTB surfactant from Cytec Company).

[3] = tested on: grape downy mildew caused by Plasmopara viticola; assay: Grape field test of disease control with mancozeb fungicide; assay type: in vivo
Procedure: as §1, §2, §3, §4

[4] = Half rate, Emulsion IV, no surfactant
[5] = Half rate, Emulsion VI, no surfactant
[6] = Half rate, Emulsion VI, with surfactant
[7] = Half rate, Emulsion VII, no surfactant
[8] = Half rate, Powder I, no surfactant
[9] = Half rate, Powder II, no surfactant
[10] = Half rate, Powder II, with surfactant
[11] = Half rate, Powder V, no surfactant

Row | Molecule | % AI Retained After One Inch Spray-Bar Rain, M (mean) ([1]; No Polymer) [%] | % AI Retained After One Inch Spray-Bar Rain, M (mean) ([1]; with Emulsion IV) [%] | % AI Retained After One Inch Spray-Bar Rain, M (mean) ([1]; with Powder I) [%] | % AI Retained After One Inch Spray-Bar Rain, M (mean) ([1]; with Powder II) [%] | % AI Retained After One Inch Spray-Bar Rain, M (mean) ([1]; with Powder III) [%] | other results
1 | CNC(=O)Oc1cccc2ccccc12 [carbaryl] | 25 | 40 | 31 | 32 | 27 | 
2 | CNC(=O)Oc1cccc2c1OC(C)(C)C2 [carbofuran] | 3 | 9 | 39 | 23 | 16 | 
3 | CN(C)C(CSC(N)=O)CSC(N)=O [cartap] | 4 | 3 | 5 | 8 | 8 | 
4 | N#Cc1c(Cl)c(Cl)c(Cl)c(C#N)c1Cl [chlorothalonil] | 2 | 12 | 16 | 54 | 4 | 
5 | [Cu+2].[OH-].[OH-] [copper hydroxide] | 20 | 11 | 22 | 80 | 21 | 
6 | OC(c1ccc(Cl)cc1)(c1ccc(Cl)cc1)C(Cl)(Cl)Cl [dicofol] | 18 | 95 | 76 | 62 | 62 | 
7 | N#CC(CCc1ccc(Cl)cc1)(Cn1cncn1)c1ccccc1 (centres unmarked) [fenbuconazole] | 9 | 83 | 63 | 82 | 48 | 
8 | CCCCC(C#N)(Cn1cncn1)c1ccc(Cl)cc1 (centres unmarked) [myclobutanil] | 13 | 74 | 56 | 77 | 44 | 
9 | CCOc1cc(Oc2ccc(C(F)(F)F)cc2Cl)ccc1[N+](=O)[O-] [oxyfluorfen] | 17 | 152 | 66 | 137 | 55 | 
10 | CCC(=O)Nc1ccc(Cl)c(Cl)c1 [propanil] | 9 | 18 | 38 | 27 | 21 | 
11 | dinitro-(1-methylheptyl) phenyl crotonate [dinocap] | 3 | 40 | 49 | 47 | 19 | 
12 | mancozeb |  |  |  |  |  | Infection on Peanut 23DAT#9 ([2]; Full rate (1.6 kg active ingredient/hectare), no polymer additive, no surfactant): 27.5 cd percent; Infection on Peanut 23DAT#9 [2, 4]: 25.0 de percent; Infection on Peanut 23DAT#9 [2, 5]: 22.5 ef percent; Infection on Peanut 23DAT#9 [2, 6]: 13.8 h percent; Infection on Peanut 23DAT#9 [2, 7]: 21.3 f percent; Infection on Peanut 23DAT#9 [2, 8]: 23.8 ef percent; Infection on Peanut 23DAT#9 [2, 9]: 32.5 c percent; Infection on Peanut 23DAT#9 [2, 10]: 17.5 g percent; Infection on Peanut 23DAT#9 [2, 11]: 22.5 ef percent; Infection on Peanut 23DAT#9 ([2]; Half rate, no polymer additive, no surfactant): 41.3 b percent; Infection on Grape 7DAT#7 ([3]; Full rate (2.8 kg active ingredient/hectare), no polymer additive, no surfactant): 41.7 cd percent; Infection on Grape 7DAT#7 ([3]; Half rate (1.4 kg active ingredient/hectare), no polymer additive, no surfactant): 63.3 b percent; Infection on Grape 7DAT#7 [3, 4]: 38.3 de percent; Infection on Grape 7DAT#7 [3, 5]: 43.3 cd percent; Infection on Grape 7DAT#7 [3, 6]: 31.7 fg percent; Infection on Grape 7DAT#7 [3, 7]: 41.7 cd percent; Infection on Grape 7DAT#7 [3, 8]: 46.7 c percent; Infection on Grape 7DAT#7 [3, 9]: 43.3 cd percent; Infection on Grape 7DAT#7 [3, 10]: 28.3 g percent; Infection on Grape 7DAT#7 [3, 11]: 46.7 c percent
13 | manganese ethylenebisdithiocarbamate [maneb] | 16 | 103 | 76 | 108 | 86 | 
